Experimental data published in PubChem BioAssay AID540269 (Sanford-Burnham Center for Chemical Genomics, 2011).
Several values for one entry are separate records, joined by “and”; a condition that tells them apart may be missing. Identical values can stand only once. Activity calls are given as the source filed them. The rule behind the calls is not given here.

Target: glucose-6-phosphate dehydrogenase-6-phosphogluconolactonase (Plasmodium falciparum 3D7)
Assay: PfG6PD enzyme inhibitors, kinetic NADPH readout, dose response, orthogonal assay, biochemical, kinetic NADPH detection (AID 540269)
Details: purified PfG6PD-6PGL

| Compound | IC50 |
| --- | --- |
| Cc1ccc(-c2nc(N3CCOCC3)s[n+]2-c2ccccc2)cc1 | > 80 µM (inactive) |
| C[C@H](NC(=O)c1cc2c(cn1)[nH]c1ccccc12)C(=O)O | > 80 µM (inactive) |
| COC1(OC)C=CC(=O)C=C1NC(=O)c1ccccc1OC(C)=O | > 80 µM (inactive) |
| COc1cc(/C=N/n2cc(-c3ccccc3)[nH]c2=S)cc(OC)c1O | 11.2 µM |
| COc1cc(N)c2ncsc2c1 | > 80 µM (inactive) |
| COC(=O)[C@H](C)NC(=O)c1cc2c(cn1)[nH]c1ccccc12 | 51 µM |
| CC1=C(C)CS(=O)N(S(=O)(=O)c2ccc(Cl)cc2)C1 (centres undefined) | > 80 µM (inactive) |
| N#CC1=C(N)Oc2c(O)cc3ccccc3c2C1c1ccsc1 (centres undefined) | 55.6 µM |
| COc1ccc(C(=O)Nc2sc3c(c2C(=O)O)CC(C)(C)OC3)cc1 | 40.6 µM |
| CCOC(=O)c1c(C2COc3ccccc3O2)csc1NC(=O)c1ccco1 (centres undefined) | > 80 µM (inactive) |
| CC(=NNC(=S)N1CCN(c2ccccn2)CC1)c1nccs1 | > 80 µM (inactive) |
| CCOc1ccc(CNc2ccc(N3CCCC3)cc2)cc1 | > 80 µM (inactive) |
| CCC(=O)OCCNc1cc(Sc2nc3ccccc3s2)c2nonc2c1[N+](=O)[O-] | > 80 µM (inactive) |
| O=C(Nc1ccc(N2CCCC2)cc1)c1cccc(-c2cc3ccccc3oc2=O)c1 | > 80 µM (inactive) |
| C=CCN1CCc2cccc3c2[C@H]1Cc1ccc(O)c(O)c1-3 | > 80 µM (inactive) |
| O=[N+]([O-])c1cccc(SSc2cccc([N+](=O)[O-])c2)c1 | 71.5 µM |
| Cc1cc(O)c(-c2cc(O)c(C)cc2O)cc1O | 44.5 µM |
| [O-]/[N+](=C\c1ccco1)c1ccc(Cl)cc1 | 76.7 µM |
| O=C1C=CC(=O)N1CCCCCCCCCCN1C(=O)C=CC1=O | > 80 µM (inactive) |
| O=C1C=CC(=O)N1c1ccc(-c2nc3ccccc3o2)cc1 | > 80 µM (inactive) |
| COc1cc(-c2nnc3n2N=C(c2ccccc2)CS3)cc(OC)c1OC | > 80 µM (inactive) |
| CC1(C)CN(c2ccccc2)N(C(=O)c2ccc(C#N)cc2)C1=O | > 80 µM (inactive) |

| Compound | IC50 |
| --- | --- |
| Cc1cccc(C2(c3cccc(C)c3)CC2C(=O)Nc2ccc([N+](=O)[O-])cc2O)c1 (centres undefined) | > 80 µM (inactive) |
| O=C(COC(=O)c1cnccn1)c1ccc([N+](=O)[O-])cc1 | > 80 µM (inactive) |
| O=C1CCC[C@@H]2[C@@H](Cc3ccccc3)[C@H](N3CCN(c4ccccc4)CC3)C[C@@H]3CCN1[C@@H]32 | > 80 µM (inactive) |
| CN1CCN(C(=S)c2ccc([N+](=O)[O-])cc2)CC1 | > 80 µM (inactive) |
| CCC(=O)OCOc1ccc(/C=C2/CCC(CN(C)C)C2=O)cc1 (centres undefined) | 36.4 µM |
| Cc1ccc(SC2=C(Sc3ccc(C)cc3)C(=O)c3ccccc3C2=O)cc1 | 34.7 µM |
| O=[N+]([O-])c1ccc(Sc2cccc3cccnc23)c2cccnc12 | > 80 µM (inactive) |
| O=C(CSc1nc2ccc(Cl)cc2[nH]1)NC1CCCc2ccccc21 (centres undefined) | > 80 µM (inactive) |
| O=[N+]([O-])c1ccc(N/N=C/c2ccc(O)c(O)c2O)c(S(=O)(=O)N2CCOCC2)c1 | 75.5 µM |
| Cc1cc(C)c2c(=O)n(CC(=O)Nc3ccc(Cl)cc3)sc2n1 | > 80 µM (inactive) |
| COc1ccc(C(=O)/C=C2\Sc3ccccc3N2C)cc1 | 43.4 µM |
| O=C(CBr)c1ccc([N+](=O)[O-])c(CS(=O)(=O)c2ccc(Cl)cc2)c1 | > 80 µM (inactive) |
| O=C(Cn1sc2ccccc2c1=O)Nc1ccc(Br)cc1 | 17 µM |
| CCN(CC)C(=S)SSC(=S)N(CC)CC | > 80 µM (inactive) |
| O=C(CCC(=O)OCC(=O)c1ccc([N+](=O)[O-])cc1)Nc1ccccc1Cl | > 80 µM (inactive) |
| COc1cc(C(=O)O/N=C2/C=C(C)C(=O)C=C2C)cc(OC)c1OC | > 80 µM (inactive) |
| COC(=O)c1ccccc1NC1=C/C(=N\S(=O)(=O)c2cccs2)c2ccccc2C1=O | 35.7 µM and 60.4 µM |
| COc1ccc(N2CSC3=C(C#N)C(c4ccc(OC)c(OC)c4)CC(=O)N3C2)c(OC)c1 (centres undefined) | > 80 µM (inactive) |
| Cc1cccc(C(=O)Nc2nnc(S(=O)(=O)N3CCOCC3)s2)c1 | 59.4 µM |
| O=[N+]([O-])c1ccc2c(c1)-c1ccccc1C2O (centres undefined) | 42.9 µM |
| CCN(CC)c1ccc(C(=C2C=CC(=[N+](CC)CC)C=C2)c2ccc(N(CC)CC)cc2)cc1 | 16.1 µM |
| O=c1c2ccccc2sn1-c1ccc(Cl)cc1Cl | 12.9 µM |

| Compound | IC50 |
| --- | --- |
| Brc1cc2[nH]cnc2c2ccccc12 | > 80 µM (inactive) |
| O=S(=O)(Nc1cc(Sc2ncn[nH]2)c(O)c2ccccc12)c1ccccc1 | 23.9 µM |
| CN(C)c1ccc(/C=C/c2ccc3c4ccccc4ccc3[n+]2-c2ccccc2)cc1 | 44.3 µM |
| Oc1ccc(/C=N/N=C(c2ccccc2)c2ccccc2)c(O)c1O | 54.6 µM |
| Cc1ccsc1/C=N\NC(=O)CC(=O)NCc1ccccc1 | > 80 µM (inactive) |
| O=c1c2ccccc2sn1-c1ccccc1F | 15.5 µM |
| N#CC(C#N)=C1C=CC=CN1/C(=C\c1ccccc1Cl)C(=O)c1ccccc1 | > 80 µM (inactive) |
| COc1cc(N2C(=O)C=CC2=O)ccc1N1C(=O)C=CC1=O | 19.5 µM |
| O=C(CNC(=O)c1cccs1)OCC(=O)c1ccc([N+](=O)[O-])cc1 | > 80 µM (inactive) |
| O=C(Nc1nnc(S(=O)(=O)N2CCCCC2)s1)c1cccc(Br)c1 | 23.8 µM |
| c1ccc(OCc2nnc3n2N=C(c2ccccc2)CS3)cc1 | > 80 µM (inactive) |
| COc1ccc(CCn2c(NN=C(C)C)nc3c2c(=O)[nH]c(=O)n3C)cc1 | > 80 µM (inactive) |
| Cc1cccc(NC2=C(NC(=O)c3ccccc3)C(=O)c3ccccc3C2=O)c1 | > 80 µM (inactive) |
| Cc1ccc(-c2c(C(=O)N/N=C/c3cccs3)nnn2-c2nonc2N)cc1 | > 80 µM (inactive) |
| CCOc1ccc(N(CC(=O)N/N=C/c2cc([N+](=O)[O-])ccc2Cl)S(C)(=O)=O)cc1 | > 80 µM (inactive) |
| COc1ccc(OC)c2c1C(=O)C(Cl)=C(Cl)C2=O | 20.3 µM |
| CCc1nnc(NC(=O)c2ccc(Cl)nc2)s1 | > 80 µM (inactive) |
| OCCN1CCN(C(=S)c2ccc(-c3ccccc3)cc2)CC1 | > 80 µM (inactive) |
| O=C(Cn1sc2ccccc2c1=O)NC12CC3CC(CC(C3)C1)C2 | 13.5 µM |
| Cc1ccccc1-n1c(-c2ccc3ccccc3n2)n[nH]c1=S | 51.3 µM |
| COc1ccc(/C=C/c2nc3ccccc3n2Cc2ccc(OC)c(OC)c2)cc1 | 51.1 µM |
| Cn1sc2ccccc2c1=O | 39.5 µM |

| Compound | IC50 |
| --- | --- |
| Cc1cc(=O)[nH]c(N/N=C/c2c(C)nn(-c3ccccc3)c2Cl)n1 | 17.1 µM |
| COc1cc(/C=C/C(=O)c2ccc([N+](=O)[O-])o2)ccc1O | > 80 µM (inactive) |
| CCOc1ccc(S(=O)(=O)Nc2cc(SCC(=O)O)c(O)c3ccccc23)cc1 | 48.2 µM |
| CCOC(=O)Cc1csc(-n2sc3ccccc3c2=O)n1 | 31.3 µM |
| Cc1ccc(C(=O)Nc2nnc(S(=O)(=O)N3CCC(C)CC3)s2)cc1 | 24.1 µM |
| CCC1(C)CC(C(N)=S)CCO1 (centres undefined) | > 80 µM (inactive) |
| O=S(c1ccccc1O)S(=O)c1ccccc1O (centres undefined) | 36.4 µM |
| COc1cc(N)c2ncccc2c1Cl | 45.8 µM |
| Cc1ccc(-n2sc3ccccc3c2=O)cc1 | 19.1 µM |
| Oc1cc(CNCc2ccccc2)c(O)cc1CNCc1ccccc1 | 53.7 µM |
| O=C(CCC(=O)Nc1ccccc1Cl)N/N=C/c1ccccc1 | > 80 µM (inactive) |
| CCOC(=O)CSc1nnc(NC(=O)c2cccc([N+](=O)[O-])c2)s1 | > 80 µM (inactive) |
| COc1ccccc1N1C(=O)C=C(Sc2nc(C)cc(C)n2)C1=O | > 80 µM (inactive) |
| Cc1cc(C)c2c(=O)n(CC(=O)NC3CCCC3)sc2n1 | > 80 µM (inactive) |
| O=C1Nc2cc(C(=O)NCCCN3CCCC3)ccc2S/C1=C\c1ccccc1 | 22.3 µM |
| COc1ccc(C2(CNC(=O)c3ccc(OC)c([N+](=O)[O-])c3)CCCCC2)cc1OC | > 80 µM (inactive) |
| O=C(Sc1n[nH]c(=O)[nH]c1=O)c1ccccc1 | 22.8 µM |
| CCOC(=O)c1ccc(/[N+]([O-])=C/c2ccccc2)cc1 | > 80 µM (inactive) |
| Cn1cc(S(=O)(=O)CC(=O)N2CCc3ccccc32)c2ccccc21 | > 80 µM (inactive) |
| O=C(O)c1cccc(N2C(=O)C=CC2=O)c1 | 55.2 µM |
| Cc1ccc2nc3sc(C(=O)N4CCOCC4)c(N)c3cc2c1 | 37 µM |
| CN(C)c1cccc2c1c(NC(=O)c1ccc(Cl)cc1)nn2C | > 80 µM (inactive) |

| Compound | IC50 |
| --- | --- |
| Clc1ccc2nc(-c3ccc4c(c3)OCO4)cn2c1 | 40.7 µM |
| CC(=O)Nc1cc2c(cc1[N+](=O)[O-])-c1ccccc1C2O (centres undefined) | > 80 µM (inactive) |
| Cc1ccc(C)c(-n2sc3ccc(F)cc3c2=O)c1 | 11.4 µM |
| CC(=O)Nc1cc([N+](=O)[O-])ccc1OCc1ccccc1 | > 80 µM (inactive) |
| CC(C)c1nnc(NC(=O)c2sc3ccccc3c2Cl)s1 | 35.5 µM |
| CC1=NOC(=O)/C1=C\c1ccc(-c2ccccc2Br)o1 | > 80 µM (inactive) |
| Clc1ccc(N=c2ssnc2Cl)nc1 | > 80 µM (inactive) |
| [O-]/[N+](=C\c1ccncc1)c1ccccc1 | > 80 µM (inactive) |
| COc1cccc(CNc2ccc3[nH]c(=O)[nH]c3c2)c1OCc1ccc(F)cc1 | > 80 µM (inactive) |
| O=C1Nc2cc(C(=O)NCCCN3CCCC3)ccc2S/C1=C/c1cccc(Cl)c1 | 34.2 µM |
| O=C(O)CSc1cc(NS(=O)(=O)c2ccc(Cl)cc2)c2ccccc2c1O | 46.3 µM |
| O=c1c2ccccc2sn1-c1ccc(S(=O)(=O)N2CCCC2)cc1 | 28.4 µM |
| CCn1c2ccccc2c2nc3cc(S(=O)(=O)N4CCOCC4)ccc3nc21 | > 80 µM (inactive) |
| CCCCCCCCn1sccc1=O | 66.4 µM |
| CCOC(=O)Cc1cc(=O)n2[nH]c(C(C)(C)C)cc2n1 | > 80 µM (inactive) |
| O=C1NC(=O)C(=Cc2ccc(-c3ccccc3[N+](=O)[O-])o2)C(=O)N1 | 69.9 µM |
| COc1ccc(NC(=S)N(CCC(C)C)C2CCN(C(C)C)CC2)cc1Cl | 56.6 µM |
| CCN1CCCC1CNC(=O)c1ccc2c(c1)NC(=O)/C(=C\c1ccccc1Cl)S2 (centres undefined) | 8.01 µM |
| CCCN1CCc2cc(O)cc3c2[C@H]1Cc1ccc(O)c(O)c1-3 | > 80 µM (inactive) |
| CCN(CC)CCn1c2ccccc2c(=O)c2c(O)ccc(O)c21 | 33.1 µM |
| CC(=O)OCCCNc1cc(Sc2nc3ccccc3s2)c2nonc2c1[N+](=O)[O-] | 14.9 µM |
